The values below come from patent US12649750B2, “Macrocyclic compounds, compositions, and methods of using thereof” (Sionna Therapeutics Inc., priority 2022, dated 2026).

This assay addresses T1, NBD1 (Homo sapiens, UniProt P13569).
T1 construct: Purified recombinant NBD1 was produced using previously described methods; made in house
Kind of assay: Aggregation analysis using differential static light scattering (DSLS), thermal stability of NBD1 (ΔTagg). The format is binding. The note with it: ΔTagg versus DMSO control, NBD1 0.2 mg/ml. Summed up: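 Thermal aggregation of purified NBD1 was followed by static light scattering during a 1° C./min ramp to 70° C. Protein was at 0.2 mg/ml with 2 mM ATP at pH7.6. Each compound's Tagg was referenced to DMSO controls.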

SMILES strings stand for the structures.

T1 sequence (P13569 423-646 limits assumed): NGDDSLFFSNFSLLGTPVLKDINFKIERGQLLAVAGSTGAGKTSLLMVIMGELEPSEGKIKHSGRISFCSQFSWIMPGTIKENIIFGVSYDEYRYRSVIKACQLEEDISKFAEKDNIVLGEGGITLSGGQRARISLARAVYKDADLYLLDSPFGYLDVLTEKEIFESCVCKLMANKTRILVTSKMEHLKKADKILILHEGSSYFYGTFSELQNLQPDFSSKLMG

Consider `C[C@@H](Cc1cccc(C2CCCC(C)(C)CS(=O)(=O)CCc3c(c(F)cc4[nH]ccc34)Oc3ccc(F)c(c3)-c3nn2cc3C#N)c1)C(=O)O` (mixture of isomers) [Compound 152, (2S)-3-[3-(3-Cyano-22,28-difluoro-10,10-dimethyl-12,12-dioxo-24-oxa-12λ6-thia-5,19,30-triazapentacyclo[23.3.1.12,5.015,23.016,20]triaconta-1(29),2(30),3,15,17,20,22,25,27-nonaen-6-yl)phenyl]-2-methyl-propanoic Acid], for which the “DSLS 3D (100 μM ΔT)” value was “C (a value greater than 10 °C and less than or equal to 25 °C is marked “C”)”.
The same measure for `CC1c2ccnc(c2)-c2nc(nn2C)[C@@](C)(c2cccc(CC(C)(C)C(=O)O)c2)CCCC(C)(C)CS(=O)(=O)CCc2c1c(F)c(F)c1[nH]ccc21` (single isomer, unassigned) [Compound 318B]: “A (an ΔTagg value less than or equal to 5 °C is marked “A”)”; for `C[C@H](Cc1cccc([C@@]2(C)CCCC(C)(C)CS(=O)(=O)CCc3c(c(F)cc4[nH]ccc34)Sc3cc(c(F)cc3C(=O)O)-c3nc2nn3C)c1)C(=O)O` [Compound 378, (6R)-6-[3-[(2R)-2-Carboxypropyl]phenyl]-22,28-difluoro-3,6,10,10-tetramethyl-12,12-dioxo-12λ6,24-dithia-3,4,19,30-tetrazapentacyclo[23.3.1.12,5.015,23.016,20]triaconta-1(29),2(30),4,15,17,20,22,25,27-nonaene-26-carboxylic Acid]: “A (an ΔTagg value less than or equal to 5 °C is marked “A”)”.
The same measure for `C[C@@H](Cc1cccc(C2(C)CCCC(C)(C)CS(=O)(=O)CCc3c(c(F)cc4[nH]ccc34)[S+]([O-])c3ccnc(c3)-c3nc2nn3C)n1)C(=O)O` (single isomer, unassigned) [Compound 315D]: “B (a value above 5 °C and less than or equal to 10 °C is marked “B”)”.
The same measure for `CNC(=O)[C@H](C)Cc1cccc([C@@]2(C)CCCC(C)(C)CS(=O)(=O)CC(NC)c3c(c(F)c(F)c4[nH]ccc34)Oc3ccc(F)c(c3)-c3nc2nn3C)c1` (single isomer, unassigned) [Compound 360C]: “A (an ΔTagg value less than or equal to 5 °C is marked “A”)”; for `C[C@@H](Cc1cncc(C2(C)CCCC(C)(C)CS(=O)(=O)CCc3c(c(F)c(F)c4[nH]ccc34)Oc3ccnc(c3)-c3nc2nn3C)n1)C(=O)O` (single isomer, unassigned) [Compound 300B]: “A (an ΔTagg value less than or equal to 5 °C is marked “A”)”.
With `Cn1nc2nc1-c1cc(ccc1F)Oc1c(F)cc3[nH]ccc3c1CCS(=O)(=O)CC(C)(C)CCCC2(C)c1cccc(C(O)CO)c1` (single isomer, unassigned) [Compound 90B, 1-[3-(22,28-difluoro-3,6,10,10-tetramethyl-12,12-dioxo-24-oxa-12λ6-thia-3,4,19,30-tetrazapentacyclo[23.3.1.12,5.015,23.016,20]triaconta-1(29),2(30),4,15,17,20,22,25,27-nonaen-6-yl)phenyl]ethane-1,2-diol], the “DSLS 3D (100 μM ΔT)” value was “A (an ΔTagg value less than or equal to 5 °C is marked “A”)”.
Then `Cn1nc2nc1-c1cc(ccn1)Sc1c(F)cc3[nH]ccc3c1CCS(=O)(=O)CC(C)(C)CCC[C@]2(C)c1cccc(C[C@@H](O)CO)c1` [Compound 336B, (2R)-3-[3-[(6R)-22-Fluoro-3,6,10,10-tetramethyl-12,12-dioxo-12λ6,24-dithia-3,4,19,28,30-pentazapentacyclo[23.3.1.12,5.015,23.016,20]triaconta-1(29),2(30),4,15,17,20,22,25,27-nonaen-6-yl]phenyl]propane-1,2-diol], with “A (an ΔTagg value less than or equal to 5 °C is marked “A”)”; and `C[C@H](Cc1cccc([C@@]2(C)CCCC(C)(C)CS(=O)(=O)CCc3c(c(F)c(F)c4[nH]ccc34)Oc3ccc(F)c(c3)-c3nc2nn3C)c1)C(=O)NS(=O)(=O)C1CC1` [Compound 328, (2R)—N-Cyclopropylsulfonyl-2-methyl-3-[3-[(6R)-21,22,28-trifluoro-3,6,10,10-tetramethyl-12,12-dioxo-24-oxa-12λ6-thia-3,4,19,30-tetrazapentacyclo[23.3.1.12,5.015,23.016,20]triaconta-1(29),2(30),4,15,17,20,22,25,27-nonaen-6-yl]phenyl]propenamide], with “B (a value above 5 °C and less than or equal to 10 °C is marked “B”)”.
Then `C[C@@H](Cc1cncc(C2(C)CCCC(C)(C)CS(=O)(=O)CCc3c(c(F)cc4[nH]ccc34)Oc3ccnc(c3)-c3nc2nn3C)c1)C(=O)O` (single isomer, unassigned) [Compound 299A], with “A (an ΔTagg value less than or equal to 5 °C is marked “A”)”; and `Cn1nc2nc1-c1cc(ccn1)Cc1c(F)c(F)c3[nH]ccc3c1CCS(=O)(=O)CC(C)(C)CCC[C@]2(C)c1cccc(CC2(C(=O)O)CC2)c1` [Compound 306, 1-[[3-[(6R)-21,22-Difluoro-3,6,10,10-tetramethyl-12,12-dioxo-12λ6-thia-3,4,19,28,30-pentazapentacyclo[23.3.1.12,5.015,23.016,20]triaconta-1(29),2(30),4,15,17,20,22,25,27-nonaen-6-yl]phenyl]methyl]cyclopropanecarboxylic Acid], with “A (an ΔTagg value less than or equal to 5 °C is marked “A”)”; and `Cn1nc2nc1-c1cc(ccn1)Cc1c(F)cc3[nH]cc(CC(=O)O)c3c1CCS(=O)(=O)CC(C)(C)CCC[C@]2(C)c1ccccc1` [Compound 364, 2-[(6R)-22-Fluoro-3,6,10,10-tetramethyl-12,12-dioxo-6-phenyl-12λ6-thia-3,4,19,28,30-pentazapentacyclo[23.3.1.12,5.015,23.016,20]triaconta-1(29),2(30),4,15,17,20,22,25,27-nonaen-17-yl]acetic Acid], with “A (an ΔTagg value less than or equal to 5 °C is marked “A”)”.
Consider `CC1(C)CS(=O)(=O)CCc2c(c(F)cc3[nH]ccc23)Oc2ccc(F)c(c2)-c2ccnn2C(c2cccc(CCC(=O)O)c2)CCO1` (single isomer, unassigned) [Compound 88, 3-[3-(23,29-Difluoro-11,11-dimethyl-13,13-dioxo-10,25-dioxa-13λ6-thia-5,6,20-triazapentacyclo[24.3.1.02,6.016,24.017,21]triaconta-1(30),2,4,16,18,21,23,26,28-nonaen-7-yl)phenyl]propanoic Acid], for which the “DSLS 3D (100 μM ΔT)” value was “A (an ΔTagg value less than or equal to 5 °C is marked “A”)”.
The same measure for `Cn1nc2nc1-c1cc(ccn1)Oc1c(F)c(F)c3[nH]ccc3c1CCS(=O)(=O)CC(C)(C)CCC[C@]2(C)c1cccc(CC(C)(C)C(=O)O)c1` [Compound 323, 3-[3-[(6R)-21,22-Difluoro-3,6,10,10-tetramethyl-12,12-dioxo-24-oxa-12λ6-thia-3,4,19,28,30-pentazapentacyclo[23.3.1.12,5.015,23.016,20]triaconta-1(29),2(30),4,15,17,20,22,25,27-nonaen-6-yl]phenyl]-2,2-dimethyl-propanoic Acid]: “B (a value above 5 °C and less than or equal to 10 °C is marked “B”)”; for `C[C@H](Cc1cccc([C@@]2(C)CCCC(C)(C)CS(=O)(=O)CC(N)c3c(c(F)c(F)c4[nH]ccc34)Oc3ccc(F)c(c3)-c3nc2nn3C)c1)C(N)=O` (single isomer, unassigned) [Compound 385A]: “B (a value above 5 °C and less than or equal to 10 °C is marked “B”)”.
For the compound `Cn1nc2nc1-c1cc(ccc1F)[S+]([O-])c1c(F)cc3[nH]ccc3c1CCS(=O)(=O)CC(C)(C)CCC[C@]2(C)c1cccc([C@H](O)CO)c1` (single isomer, unassigned) [Compound 302B], the “DSLS 3D (100 μM ΔT)” value was “B (a value above 5 °C and less than or equal to 10 °C is marked “B”)”.
Then `Cn1nc2nc1-c1cc(ccn1)S(=O)(=O)c1c(F)cc3[nH]ccc3c1CCS(=O)(=O)CC(C)(C)CCC[C@]2(C)c1cccc(CC(C)(C)C(=O)O)c1` [Compound 350, 3-[3-[(6R)-22-Fluoro-3,6,10,10-tetramethyl-12,12,24,24-tetraoxo-12λ6,24λ6-dithia-3,4,19,28,30-pentazapentacyclo[23.3.1.12,5.015,23.016,20]triaconta-1(29),2(30),4,15,17,20,22,25,27-nonaen-6-yl]phenyl]-2,2-dimethyl-propanoic Acid], with “A (an ΔTagg value less than or equal to 5 °C is marked “A”)”; and `CNC(=O)[C@@H](C)Cc1cccc([C@@]2(C)CCCC(C)(C)CS(=O)(=O)CC(NC)c3c(c(F)cc4[nH]ccc34)Sc3ccc(F)c(c3)-c3nc2nn3C)c1` (single isomer, unassigned) [Compound 368B], with “A (an ΔTagg value less than or equal to 5 °C is marked “A”)”.
The same measure for `O=C(O)CCc1cccc(C2CCCCCS(=O)(=O)CCc3c(c(F)cc4[nH]ccc34)Oc3ccc(F)c(c3)-c3ncc2[nH]3)c1` (stereo not drawn) [Compound 36, 3-[3-(22,28-Difluoro-12,12-dioxo-24-oxa-12λ6-thia-3,19,30-triazapentacyclo[23.3.1.12,5.015,23.016,20]triaconta-1(29),2,4,15,17,20,22,25,27-nonaen-6-yl)phenyl]propanoic Acid]: “C (a value greater than 10 °C and less than or equal to 25 °C is marked “C”)”; for `Cn1nc2nc1-c1cc(ccn1)Cc1c(F)cc3[nH]ccc3c1CCS(=O)(=O)CC(C)(C)CCC[C@]2(C)c1cccc(C[C@H](O)CO)c1` [Compound 312, (2S)-3-[3-[(6R)-22-Fluoro-3,6,10,10-tetramethyl-12,12-dioxo-12λ6-thia-3,4,19,28,30-pentazapentacyclo[23.3.1.12,5.015,23.016,20]triaconta-1(29),2(30),4,15,17,20,22,25,27-nonaen-6-yl]phenyl]propane-1,2-diol]: “A (an ΔTagg value less than or equal to 5 °C is marked “A”)”; for `C[C@H](Cc1cccc([C@@]2(C)CCCC(C)(C)CS(=O)(=O)CCc3c(c(F)c(F)c4[nH]cc(Cl)c34)Oc3ccc(F)c(c3)-c3nc2nn3C)c1)C(=O)O` [Compound 327]: “A (an ΔTagg value less than or equal to 5 °C is marked “A”)”.
